{"source": "PubChem BioAssay AID720622", "about": "(The Scripps Research Institute Molecular Screening Center, 2013)"}
{"experiment": "T. brucei parasite growth inhibition, late-stage follow-up, counter-screen for T. brucei MetRS inhibitor project, absorbance (AID 720622)", "settings": "T. brucei bloodstream form 427 growth, AlamarBlue fluorescence, 48 h; run 1", "units": {"IC50": "µM"}}
{"smiles": "O=C(C[C@H]1C(=O)N(Cc2ccccc2)C[C@@H]1c1ccc(Br)cc1)Nc1ccc(Br)cc1", "IC50": 4.03}
{"smiles": "O=C(CC=NOCc1ccc([N+](=O)[O-])cc1)Nc1ccc(Br)cc1", "IC50": "> 10"}
{"smiles": "O=C(NCc1nc2ccccc2[nH]1)C1=C[C@@H](c2csc3ccccc23)C[C@@H](OCCCCO)O1", "IC50": "> 10"}
{"smiles": "O=C(NCc1nc2ccccc2[nH]1)C1=C[C@H](c2csc3ccccc23)C[C@H](OCCCCO)O1", "IC50": 3.96}
{"smiles": "CC(=O)c1ccc(N2CCN(C(=O)CCCn3c(=O)[nH]c4ccc(Br)cc4c3=O)CC2)cc1", "IC50": "> 10"}
{"smiles": "CCOC(=O)N1CCC(Nc2c(Nc3ccc(F)cc3)c(=O)c2=O)CC1", "IC50": 8.72}
{"smiles": "O=C(CC=NOCc1ccc([N+](=O)[O-])cc1)Nc1ccc(Cl)cc1", "IC50": "> 10"}
{"smiles": "COc1ccc(CNC(=O)CSc2nnc3c(n2)[nH]c2ccc(F)cc23)cc1", "IC50": "> 10"}
{"smiles": "CC(CC(=O)Nc1cccc(Br)c1)=NNC(=O)c1ccc(O)cc1O", "IC50": "> 10"}
{"smiles": "CCO[C@H]1OC(C(=O)NCc2nc3ccccc3[nH]2)=C[C@@H](c2ccc(Br)cc2)[C@@H]1CCCO", "IC50": "> 10"}
{"smiles": "Clc1ccc(-c2nnc(SCc3nc4ccccc4[nH]3)o2)c(Cl)c1", "IC50": "> 10"}
{"smiles": "COc1ccccc1NS(=O)(=O)c1cccc(NC(=O)Nc2ccccc2)c1", "IC50": 6.06}
{"smiles": "O=C1CC(SCc2nc3ccccc3[nH]2)C(=O)N1c1cccc(Cl)c1", "note": "(configuration not stated)", "IC50": "> 10"}
{"smiles": "Oc1c(Cl)cc(Cl)cc1CNc1nc2ccccc2[nH]1", "IC50": "> 10"}
{"smiles": "O=C(NCc1nc2ccccc2[nH]1)C1=C[C@@H](c2ccccc2)C[C@@H](OCc2ccc(CO)cc2)O1", "IC50": "> 10"}
{"smiles": "O=C(CN1CCSC1=NCc1ccccc1)c1ccc(Cl)c(Cl)c1", "IC50": "> 10"}
{"smiles": "O=C(NCCc1nc2ccccc2[nH]1)c1ccc(Cl)c([N+](=O)[O-])c1", "IC50": 4.97}
{"smiles": "CC(C)OCCCN1CC(=O)N2C(c3cccc([N+](=O)[O-])c3)c3[nH]c4ccccc4c3C[C@H]2C1=O", "note": "(some centres not stated)", "IC50": "> 10"}
{"smiles": "O=C(Cn1cnc2ccccc21)Nc1cccc([N+](=O)[O-])c1", "IC50": "> 10"}
{"smiles": "Brc1cnc2nc(SCc3nc4ccccc4[nH]3)[nH]c2c1", "IC50": "> 10"}
{"smiles": "O=C(NNC(=O)c1cc(-c2ccc(Cl)c(Cl)c2)nc2ccccc12)Nc1ccccc1", "IC50": 5.24}
{"smiles": "O=C1CC(N(CCc2ccccc2)C(=S)Nc2ccccc2)C(=O)N1c1ccc(Br)cc1", "note": "(configuration not stated)", "IC50": 1.95}
{"smiles": "O=C(NNC(=O)c1ccc(-n2cncn2)c([N+](=O)[O-])c1)c1ccc(Cl)cc1", "IC50": "> 10"}
{"smiles": "O=C(Cn1cc(C(=O)C(=O)N2CCOCC2)c2ccccc21)Nc1cccc(C(F)(F)F)c1", "IC50": 3.53}
{"smiles": "O=C(NCc1nc2ccccc2[nH]1)C1=C[C@@H](C2CC2)C[C@@H](OCc2ccc(CO)cc2)O1", "IC50": "> 10"}
{"smiles": "O=C(NCc1nc2ccccc2[nH]1)C1=C[C@H](c2ccc(Br)cc2)C[C@H](OCc2ccc(CO)cc2)O1", "IC50": 9.73}
{"smiles": "O=C(NCc1nc2ccccc2[nH]1)C1=C[C@H](c2ccc(Br)cc2)C[C@H](OCCCCO)O1", "IC50": "> 10"}
{"smiles": "Clc1ccc(OCCSCc2nc3ccccc3[nH]2)cc1", "IC50": "> 10"}
{"smiles": "CC(C)(C)[C@H]1C=C(C(=O)NCc2nc3ccccc3[nH]2)O[C@@H](OCc2ccc(CO)cc2)C1", "IC50": "> 10"}
{"smiles": "CCO[C@@H]1OC(C(=O)NCc2nc3ccccc3[nH]2)=C[C@H](c2ccc(Br)cc2)[C@H]1CCCO", "IC50": "> 10"}
{"smiles": "COc1ccc(OCC(O)CNC(=O)Nc2ccc(Cl)cc2)cc1", "note": "(configuration not stated)", "IC50": "> 10"}
{"smiles": "C[C@H](O)[C@@H]1C(=O)N2CCc3c([nH]c4ccccc34)[C@@H]2C[C@@H]1N(C)Cc1ccc2c(c1)OCO2", "IC50": "> 10"}
{"smiles": "O=C(CCC(=O)Nc1cccc([N+](=O)[O-])c1)NN=Cc1cccs1", "IC50": "> 10"}
{"smiles": "O=C(NCc1nc2ccccc2[nH]1)C1=C[C@H](C2CC2)C[C@H](OCc2ccc(CO)cc2)O1", "IC50": "> 10"}
{"smiles": "CN(Cc1cc(Cl)cc(Cl)c1)[C@H]1C[C@H]2c3[nH]c4ccccc4c3CCN2C(=O)[C@H]1CO", "IC50": 1.97}
{"smiles": "O=C(NCc1nc2ccccc2[nH]1)C1=C[C@H](c2ccccc2)C[C@H](OCc2ccc(CO)cc2)O1", "IC50": "> 10"}
{"smiles": "CCCCCCCCCC1NC(C(=O)O)Cc2c1[nH]c1ccccc21", "note": "(configuration not stated)", "IC50": "> 10"}
{"smiles": "O=C(NCc1nc2ccccc2[nH]1)C1=C[C@H](c2ccc3c(c2)OCO3)C[C@H](OCCCCO)O1", "IC50": "> 10"}
{"smiles": "COc1ccccc1-n1c(SCC(=O)Nc2ccc(Cl)cc2)nc(O)c(Cc2ccccc2)c1=O", "IC50": "> 10"}
{"smiles": "O=C(N/C(=C\\c1cccnc1)c1nc2ccccc2[nH]1)c1cccc(Br)c1", "IC50": "> 10"}
{"smiles": "O=C1[C@@H]2Cc3c([nH]c4ccccc34)C(c3cccc([N+](=O)[O-])c3)N2C(=O)CN1CCCO", "note": "(some centres not stated)", "IC50": "> 10"}
{"smiles": "Cc1ccc(NC(=O)CN(C)C(=O)CCSc2ccc(F)cc2)cc1", "IC50": "> 10"}
{"smiles": "O=C(NCc1nc2ccccc2[nH]1)C1=C[C@@H](c2ccc(Br)cc2)C[C@@H](OCCCCO)O1", "IC50": 6.6}
{"smiles": "O=C(CC(=O)Nc1cccc(Cl)c1)NN=Cc1ccccc1", "IC50": "> 10"}
{"smiles": "CN1CC(=O)N2C(c3cccc([N+](=O)[O-])c3)c3[nH]c4ccccc4c3C[C@H]2C1=O", "note": "(some centres not stated)", "IC50": "> 10"}
{"smiles": "CC(=O)c1c[nH]c(C(=O)NCc2cccc(C(F)(F)F)c2)c1", "IC50": "> 10"}
{"smiles": "Cc1[nH]c2ccc(Br)cc2c(=O)c1CN1CCCCCC1", "IC50": "> 10"}
{"smiles": "COc1ccc2[nH]c3nc(SCC(=O)Nc4ccc5c(c4)OCO5)nnc3c2c1", "IC50": "> 10"}
{"smiles": "O=C(NCc1nc2ccccc2[nH]1)C1=C[C@@H](c2ccc3c(c2)OCO3)C[C@@H](OCCCCO)O1", "IC50": "> 10"}
{"smiles": "O=C(NCc1nc2ccccc2[nH]1)C1=C[C@@H](c2ccc(Br)cc2)C[C@@H](OCc2ccc(CO)cc2)O1", "IC50": 4.38}
{"smiles": "COc1cccc(NC(=O)CSc2nnc3c(n2)[nH]c2ccc(C)cc23)c1", "IC50": "> 10"}
{"smiles": "O=C(Nc1ccc(F)c(Cl)c1)C1CC(=O)n2c(nc3ccccc32)N1", "note": "(configuration not stated)", "IC50": "> 10"}
{"smiles": "CC(C)(C)[C@@H]1C=C(C(=O)NCc2nc3ccccc3[nH]2)O[C@H](OCc2ccc(CO)cc2)C1", "IC50": "> 10"}
{"smiles": "CN(CC(=O)Nc1ccc(Cl)cc1)C(=O)c1ccc(-n2cncn2)c([N+](=O)[O-])c1", "IC50": "> 10"}
{"experiment": "T. brucei parasite growth inhibition, late-stage follow-up, counter-screen for T. brucei MetRS inhibitor project, absorbance (AID 720622)", "settings": "T. brucei bloodstream form 427 growth, AlamarBlue fluorescence, 48 h; run 2", "units": {"IC50": "µM"}}
{"smiles": "O=C1CC(N(CCc2ccccc2)C(=S)Nc2ccccc2)C(=O)N1c1ccc(Br)cc1", "note": "(configuration not stated)", "IC50": 2.74}
{"smiles": "O=C(Cn1cc(C(=O)C(=O)N2CCOCC2)c2ccccc21)Nc1cccc(C(F)(F)F)c1", "IC50": 1.8}
{"smiles": "CN(Cc1cc(Cl)cc(Cl)c1)[C@H]1C[C@H]2c3[nH]c4ccccc4c3CCN2C(=O)[C@H]1CO", "IC50": 2.62}
